Tested on: 931267-113-T-J1-PDC multicell spheroid viability
Test: Anticancer human tumor 931267-113-T-J1-PDC patient-derived colon adenocarcinoma cell line growth inhibition [PI3K]
Conditions: for IC50: curve of first compound; for viability, T/C: stronger effect = lower value
In short: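 Three cell types, namely tumor cells, endothelial cells and mesenchymal stem cells, formed each spheroid. Combinations with four PI3K inhibitors were screened at clinically achievable concentrations decreasing by half-log, and spheroid viability was recorded.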
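Further: viability read 7 days after compound addition.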

CC1(C)CCC(Nc2ncc(C(F)(F)F)c(-c3c[nH]c4c(P(C)(C)=O)c(C#N)ccc34)n2)CN1 (configuration not stated) + Cc1nc(NC(=O)N2CCCC2C(N)=O)sc1-c1ccnc(C(C)(C)C(F)(F)F)c1
IC50 (second compound 0.0316 µM): > 10 µM
IC50 (second compound 0.1 µM): > 10 µM
IC50 (second compound 0.316 µM): > 10 µM
IC50 (second compound 1 µM): > 10 µM
IC50 (second compound 3.16 µM): 9.36 µM
IC50 (second compound 10 µM): 3.31 µM
viability, T/C (second compound 0.0316 µM, first compound 0.0316 µM): 101%
viability, T/C (second compound 0.0316 µM, first compound 0.1 µM): 93.7%
viability, T/C (second compound 0.0316 µM, first compound 0.316 µM): 83.2%
viability, T/C (second compound 0.0316 µM, first compound 1 µM): 74.1%
viability, T/C (second compound 0.0316 µM, first compound 3.16 µM): 70.9%
viability, T/C (second compound 0.0316 µM, first compound 10 µM): 58.2%
viability, T/C (second compound 0.1 µM, first compound 0.0316 µM): 94.5%
viability, T/C (second compound 0.1 µM, first compound 0.1 µM): 70.2%
viability, T/C (second compound 0.1 µM, first compound 0.316 µM): 70.7%
viability, T/C (second compound 0.1 µM, first compound 1 µM): 70.5%
viability, T/C (second compound 0.1 µM, first compound 3.16 µM): 77.9%
viability, T/C (second compound 0.1 µM, first compound 10 µM): 58%
viability, T/C (second compound 0.316 µM, first compound 0.0316 µM): 79.6%
viability, T/C (second compound 0.316 µM, first compound 0.1 µM): 79%
viability, T/C (second compound 0.316 µM, first compound 0.316 µM): 80.4%
viability, T/C (second compound 0.316 µM, first compound 1 µM): 67.6%
viability, T/C (second compound 0.316 µM, first compound 3.16 µM): 74.5%
viability, T/C (second compound 0.316 µM, first compound 10 µM): 54.6%
viability, T/C (second compound 1 µM, first compound 0.0316 µM): 82%
viability, T/C (second compound 1 µM, first compound 0.1 µM): 77.6%
viability, T/C (second compound 1 µM, first compound 0.316 µM): 70.7%
viability, T/C (second compound 1 µM, first compound 1 µM): 69.6%
viability, T/C (second compound 1 µM, first compound 3.16 µM): 62.3%
viability, T/C (second compound 1 µM, first compound 10 µM): 52.2%
viability, T/C (second compound 3.16 µM, first compound 0.0316 µM): 75%
viability, T/C (second compound 3.16 µM, first compound 0.1 µM): 65.5%
viability, T/C (second compound 3.16 µM, first compound 0.316 µM): 60.6%
viability, T/C (second compound 3.16 µM, first compound 1 µM): 63.2%
viability, T/C (second compound 3.16 µM, first compound 3.16 µM): 61.5%
viability, T/C (second compound 3.16 µM, first compound 10 µM): 46%
viability, T/C (second compound 10 µM, first compound 0.0316 µM): 54%
viability, T/C (second compound 10 µM, first compound 0.1 µM): 50.6%
viability, T/C (second compound 10 µM, first compound 0.316 µM): 49.8%
viability, T/C (second compound 10 µM, first compound 1 µM): 47%
viability, T/C (second compound 10 µM, first compound 3.16 µM): 52.7%
viability, T/C (second compound 10 µM, first compound 10 µM): 30.4%

From PubChem BioAssay AID1963970 (Molecular Pharmacology Branch, DTP, NCI, 2024)
